US5703070A, “Indole, indazole and benzisoxazole compounds” (Adir et Compagnie, priority 1995, dated 1997)
Like-named read-outs stand apart in the source and are kept apart here.

Tests used:
[1] = tested on: mesolimbic dopaminergic pathways; test: Verticalization test with apomorphine in mice (antipsychotic properties); details: for ED50: Mus musculus, sc; for Verticalization (Apomorphine) ID50: mice
[2] = biological target: 5-HT1A receptors (Rattus norvegicus, UniProt P19327); test: biochemical; type: binding; details: for D2 /5-HT1A: ratio of Ki values D2 / 5-HT1A
Procedure: (§1) The interaction of these compounds with various receptors was determined by using conventional binding studies, such as those described by M. J. Millan et at. […] The affinities of the compounds are expressed in Ki.

[3] = tested on: 5-HT2C receptors; test: biochemical; type: binding; details: ratio of Ki values D2 / 5-HT2C
Procedure: as §1

[4] = biological target: T1, D2 receptors (Rattus norvegicus, UniProt P61169); test: biochemical; type: binding
T1 construct: from tissue; host or cells: rat striatum (own knowledge of the cited method)
Procedure: as §1

[5] = biological target: T2, 5-HT2C receptors (Sus scrofa, UniProt K7GSR7); test: biochemical; type: binding; details: Receptor profile Ki, 5-HT2C
T2 construct: from tissue; host or cells: pig choroid plexus (own knowledge of the cited method)
T2 sequence (K7GSR7 1-457): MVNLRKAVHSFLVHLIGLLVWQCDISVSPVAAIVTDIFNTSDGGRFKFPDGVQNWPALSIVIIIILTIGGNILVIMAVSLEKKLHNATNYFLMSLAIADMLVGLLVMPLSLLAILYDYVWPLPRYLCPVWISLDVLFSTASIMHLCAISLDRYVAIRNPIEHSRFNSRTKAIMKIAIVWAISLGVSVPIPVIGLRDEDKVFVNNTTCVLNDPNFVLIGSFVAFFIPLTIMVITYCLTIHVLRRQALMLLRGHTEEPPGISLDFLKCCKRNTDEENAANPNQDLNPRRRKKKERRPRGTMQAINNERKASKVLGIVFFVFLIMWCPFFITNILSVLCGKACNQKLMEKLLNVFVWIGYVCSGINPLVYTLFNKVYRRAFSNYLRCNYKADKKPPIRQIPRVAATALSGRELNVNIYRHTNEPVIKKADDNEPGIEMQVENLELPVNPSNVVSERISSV
Procedure: as §1

[6] = biological target: T3, 5-HT2A receptors (Rattus norvegicus, UniProt P14842); test: Conventional binding studies, receptor profile: 5-HT2A; details: for Ki: Receptor profile Ki, 5-HT2A; for D2 /5-HT2A: ratio of Ki values D2 / 5-HT2A
T3 construct: from tissue; host or cells: rat frontal cortex (own knowledge of the cited method)
Procedure: as §1

[7] = in vivo; details: rat, sc
[8] = tested on: nigrostriatal dopaminergic transmission; details: background, literature; cited from earlier work
[9] = tested on: schizophrenia; details: cited from earlier work; for extrapyramidal syndrome: in vivo
[10] = tested on: nigrostriatal dopaminergic transmission; test: Catalepsy in rats (extrapyramidal potential); details: for ED50 /ID50 Ratio: catalepsy ED50 (rats) / verticalization ID50 (mice), hydrochloride
[11] = read-out: Verticalization (Apomorphine) ID50, mice, s.c. 30 min before test, apomorphine 0.75 mg/kg s.c.
[12] = read-out: Receptor profile Ki, 5-HT1A
[13] = read-out: Receptor profile Ki, D2
[14] = read-out: Verticalization (Apomorphine) ID50
[15] = s.c. 30 min before test, apomorphine 0.75 mg/kg s.c., hydrochloride

T1 sequence (P61169 whole entry): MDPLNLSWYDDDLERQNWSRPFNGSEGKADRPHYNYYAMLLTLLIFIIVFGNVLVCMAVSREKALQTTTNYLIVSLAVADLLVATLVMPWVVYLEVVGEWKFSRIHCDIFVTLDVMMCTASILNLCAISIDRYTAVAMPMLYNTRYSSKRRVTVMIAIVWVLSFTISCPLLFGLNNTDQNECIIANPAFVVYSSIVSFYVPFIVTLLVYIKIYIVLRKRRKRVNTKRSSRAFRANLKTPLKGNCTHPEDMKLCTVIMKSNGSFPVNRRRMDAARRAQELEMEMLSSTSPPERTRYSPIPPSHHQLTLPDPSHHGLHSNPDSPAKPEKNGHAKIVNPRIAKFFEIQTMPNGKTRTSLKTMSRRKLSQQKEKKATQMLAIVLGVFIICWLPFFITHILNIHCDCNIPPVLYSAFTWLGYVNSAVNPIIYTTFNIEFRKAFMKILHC
5-HT1A receptors, sequence (P19327 whole entry): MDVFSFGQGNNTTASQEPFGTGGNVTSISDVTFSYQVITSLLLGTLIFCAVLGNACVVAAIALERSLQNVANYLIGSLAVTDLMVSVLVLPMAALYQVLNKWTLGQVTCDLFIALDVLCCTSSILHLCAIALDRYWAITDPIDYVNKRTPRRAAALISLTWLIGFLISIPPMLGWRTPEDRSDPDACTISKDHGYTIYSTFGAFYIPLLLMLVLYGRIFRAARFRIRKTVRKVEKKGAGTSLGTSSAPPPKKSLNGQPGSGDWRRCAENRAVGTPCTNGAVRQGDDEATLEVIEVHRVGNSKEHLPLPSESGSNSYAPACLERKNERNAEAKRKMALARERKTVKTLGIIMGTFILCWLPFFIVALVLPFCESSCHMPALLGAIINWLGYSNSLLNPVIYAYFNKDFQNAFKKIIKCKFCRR
T3 sequence (P14842 whole entry): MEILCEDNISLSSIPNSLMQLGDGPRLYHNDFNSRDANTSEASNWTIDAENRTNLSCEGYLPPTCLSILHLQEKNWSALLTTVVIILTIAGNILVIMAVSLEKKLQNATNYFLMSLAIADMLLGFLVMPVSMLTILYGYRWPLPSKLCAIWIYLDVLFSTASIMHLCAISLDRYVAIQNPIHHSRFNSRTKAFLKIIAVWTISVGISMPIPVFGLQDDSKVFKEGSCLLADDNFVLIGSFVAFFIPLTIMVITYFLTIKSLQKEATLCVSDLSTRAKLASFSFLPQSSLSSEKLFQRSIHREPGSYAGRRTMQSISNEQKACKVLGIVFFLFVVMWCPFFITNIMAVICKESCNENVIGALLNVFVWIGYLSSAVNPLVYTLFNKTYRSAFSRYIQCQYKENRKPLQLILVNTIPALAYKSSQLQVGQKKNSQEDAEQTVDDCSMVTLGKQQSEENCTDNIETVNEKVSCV

With `COc1ccc2[nH]cc(CCCN3CCC(CC(=O)c4ccc(F)cc4)C3)c2c1.Cl` (racemic) [Ex. 3, 3-{3-[3-(4-Fluorobenzoylmethyl)pyrrolidin-1-yl]propyl}-5-methoxyindole hydrochloride] the ED50 [1, 11] was 0.15 mg/kg, the “D2 /5-HT1A” value [2] was 5.2 and the Ki [2, 12] was 1 nM. For the same compound, the “D2 /5-HT2C” value [3] was 1.6, the Ki [4, 13] was 5.2 nM and the Ki [5] was 3.3 nM. For the same compound, the Ki [6] was 1 nM, the “D2 /5-HT2A” value [6] was 5.2 and the ED50 at 0.5 h [7] was greater than 40 mg/kg. The selectivity ratio [7] was greater than 266.

In the case of `CN1CCN(C2=Nc3cc(Cl)ccc3Nc3ccccc32)CC1` [Clozapine], the “Verticalization (Apomorphine) ID50” value ([1]; s.c. 30 min before test, apomorphine 0.75 mg/kg s.c.) is given as 2.2 mg/kg/S.C, the cataleptogenic effect [8] is given as “absence of cataleptogenic effect” and the toxicity ([9]; general treatment of schizophrenic conditions) is given as “due to its toxicity, clozapine cannot be envisaged in the general treatment of schizophrenic conditions”. For the same compound, the extrapyramidal syndrome [9] was “virtually no extrapyramidal syndrome” and the ED50 at 0.5 h [7] was greater than 40 mg/kg.

With `COc1ccc2[nH]cc(CCN3CCC(CC(=O)c4ccc(F)cc4)C3)c2c1.Cl` (centres unmarked) [Ex. 1, 3-{2-[3-(4-Fluorobenzoylmethyl)pyrrolidin-1-yl]ethyl}-5-methoxyindole hydrochloride] the ED50 [1, 14] was 0.31 mg/kg, the Ki ([2]; Receptor profile Ki, 5-HT1A) was 0.6 nM and the “D2 /5-HT1A” value [2] was 183. The “D2 /5-HT2C” value [3] was 22, the Ki [4] was 110 nM and the Ki [5] was 50 nM. For the same compound, the Ki [6] was 1.6 nM, the “D2 /5-HT2A” value [6] was 69 and the ED50 at 0.5 h [7] was greater than 40 mg/kg. For the same compound, the selectivity ratio [7] was greater than 129.

With `COc1ccc2c(c1)c(CCN1CCC(CC(=O)c3ccc(F)cc3)C1)cn2C.Cl` (centres unmarked) [Ex. 2, 1-Methyl-3-{2-[3-(4-fluorobenzoylmethyl)pyrrolidin-1-yl]ethyl}-5-methoxyindole hydrochloride] the ED50 [1, 11] was 1.25 mg/kg, the “D2 /5-HT1A” value [2] was 0.9 and the Ki [2, 12] was 141 nM. For the same compound, the “D2 /5-HT2C” value [3] was 8.3, the Ki [4, 13] was 132 nM and the Ki [5] was 16 nM. For the same compound, the Ki [6] was 1.3 nM, the “D2 /5-HT2A” value [6] was 101 and the ED50 at 0.5 h [7] was greater than 40 mg/kg. For the same compound, the selectivity ratio [7] was greater than 32.

With `COc1ccc2[nH]cc(CCCN3CCC(CC(=O)c4ccc(F)cc4)C3)c2c1.Cl` (centres unmarked) [Ex. 4, 3-{3-[3-(4-fluorobenzoylmethyl)pyrrolidin-1-yl]propyl}-5-methoxyindole hydrochloride] the “Verticalization (Apomorphine) ID50” value [1, 15] was 0.3 mg/kg/S.C, the “D2 /5-HT1A” value ([2]; hydrochloride) was 5.7 and the Ki [2, 12] was 1.1 nM. For the same compound, the “D2 /5-HT2C” value ([3]; hydrochloride) was 1.6, the Ki [4, 13] was 6.3 nM and the Ki [5] was 4 nM. For the same compound, the Ki [6] was 1.2 nM, the “D2 /5-HT2A” value ([6]; hydrochloride) was 5.2 and the ED50 at 0.5 h [7] was greater than 40 mg/kg. The “ED50 /ID50 Ratio” value [10] was greater than 133.

In the case of `COc1ccc2[nH]cc(CCCN3CCC(CC(=O)c4ccc(F)cc4)C3)c2c1.Cl` (centres unmarked) [Ex. 5, 3-{3-[3-(4-fluorobenzoylmethyl)pyrrolidin-1-yl]propyl}-5-methoxyindole hydrochloride], the “Verticalization (Apomorphine) ID50” value [1, 15] is reported as 0.13 mg/kg/S.C, the “D2 /5-HT1A” value ([2]; hydrochloride) is reported as 17.8 and the Ki [2, 12] is reported as 0.4 nM. For the same compound, the “D2 /5-HT2C” value ([3]; hydrochloride) was 1.9, the Ki [4, 13] was 7.1 nM and the Ki [5] was 3.8 nM. For the same compound, the Ki [6] was 1.7 nM, the “D2 /5-HT2A” value ([6]; hydrochloride) was 4.2 and the “ED50 /ID50 Ratio” value [10] was greater than 307. For the same compound, the “Induction of catalepsy ED50” value ([10]; rats, s.c. 30 min before test, dose inducing catalepsy for mean 15 seconds) was greater than 40.0 mg/kg/S.C.

With `COc1ccc2c(c1)c(CCCN1CCC(CC(=O)c3ccc(F)cc3)C1)cn2C.Cl` (centres unmarked) [Ex. 6, 1-Methyl-3-{3-[3-(4-fluorobenzoylmethyl)pyrrolidin-1-yl]propyl}-5-methoxyindole hydrochloride] the “D2 /5-HT1A” value [2] was 0.4, the Ki [2, 12] was 39 nM and the “D2 /5-HT2C” value [3] was 0.9. It also gave a Ki [4, 13] of 15.4 nM, a Ki [5] of 17 nM and a Ki [6] of 4.3 nM. The “D2 /5-HT2A” value [6] was 3.6.

For `COc1ccc2[nH]cc(CCCN3CCCC(C(=O)c4ccc(F)cc4)CC3)c2c1.Cl` (centres unmarked) [Ex. 7, 3-{3-[4-(4-Fluorobenzoyl)perhydroazepin-1-yl]propyl}-5-methoxyindole hydrochloride], the ED50 [1, 11] was 0.5 mg/kg, the “D2 /5-HT1A” value [2] was 62 and the Ki [2, 12] was 0.7 nM. For the same compound, the “D2 /5-HT2C” value [3] was 0.4, the Ki [4, 13] was 43.5 nM and the Ki [5] was 117 nM. The Ki [6] was 2.7 nM, the “D2 /5-HT2A” value [6] was 1.6 and the ED50 at 0.5 h [7] was greater than 40 mg/kg. For the same compound, the selectivity ratio [7] was greater than 80.

For `Cl.O=C(CC1CCN(CCCc2c[nH]c3ccc(F)cc23)C1)c1ccc(F)cc1` (centres unmarked) [Ex. 8, 3-{3-[3-(4-Fluorobenzoylmethyl)pyrrolidin-1-yl]propyl}-5-fluoroindole hydrochloride], the ED50 [1, 11] was 0.5 mg/kg, the “D2 /5-HT1A” value [2] was 0.8 and the Ki [2, 12] was 12.3 nM. For the same compound, the “D2 /5-HT2C” value [3] was 0.5, the Ki [4, 13] was 9.5 nM and the Ki [5] was 19 nM. The Ki [6] was 6.6 nM, the “D2 /5-HT2A” value [6] was 1.4 and the ED50 at 0.5 h [7] was greater than 40 mg/kg. For the same compound, the selectivity ratio [7] was greater than 80.

For `COc1ccc2[nH]cc(CCCN3CCC(Cc4noc5cc(F)ccc45)C3)c2c1.Cl` (centres unmarked) [Ex. 9, 6-Fluoro-3-{1-[3-(5-methoxyindol-3-yl)propyl]pyrrolidin-3-ylmethyl}-1,2-benzisoxazole hydrochloride], the ED50 [1, 11] was 1 mg/kg, the “D2 /5-HT1A” value [2] was 143 and the Ki [2, 12] was 0.7 nM. For the same compound, the “D2 /5-HT2C” value [3] was 13, the Ki [4, 13] was 98 nM and the Ki [5] was 7.9 nM. The Ki [6] was 3.2 nM, the “D2 /5-HT2A” value [6] was 31 and the ED50 at 0.5 h [7] was greater than 40 mg/kg. It also gave a selectivity ratio [7] greater than 40.

For `O=C(CCCN1CCC(O)(c2ccc(Cl)cc2)CC1)c1ccc(F)cc1` [Haloperidol], the ED50 [1, 14] is listed as 0.01 mg/kg, the extrapyramidal syndrome [9] is listed as “cause an extrapyramidal syndrome of Parkinsonian type” and the “treatment of productive symptoms” value ([9]; such as fantasizing and hallucinations) is listed as “fairly well”. The “effectiveness with respect to deficiency symptoms” value ([9]; such as social withdrawal) was “very low” and the ED50 at 0.5 h [7] was 0.14 mg/kg.

For `COc1ccc2[nH]cc(CCCN3CCC(C(=O)c4ccc(F)cc4)CC3)c2c1.Cl` [Ref. A, 3-{3-[4-(4-Fluorobenzoyl)piperidin-1-yl]propyl}-5-methoxyindole hydrochloride, reference compound], the ED50 [1, 11] was 0.1 mg/kg, the “D2 /5-HT1A” value [2] was 2 and the Ki [2, 12] was 5.6 nM. For the same compound, the “D2 /5-HT2C” value [3] was 0.1, the Ki [4, 13] was 11 nM and the Ki [5] was 98 nM. For the same compound, the Ki [6] was 8.5 nM, the “D2 /5-HT2A” value [6] was 1.3 and the ED50 at 0.5 h [7] was 1.4 mg/kg. The selectivity ratio [7] was 14.
